From US20230242538A1, “PanK Modulators and Methods Using Same” (YALE UNIVERSITY, priority 2020, published 2023)
Like-named read-outs stand apart in the source and are kept apart here.

Columns and labels:
[1] = target: A. fumigatus enzyme (AfPanK) (Aspergillus fumigatus, UniProt Q4WWV3); assay: Inhibition of A. fumigatus pantothenate kinase (AfPanK); assay type: biochemical; conditions: read-out: A. fum. IC50
S. cerevisiae monster = assay: Growth inhibition of S. cerevisiae monster; assay type: cell-based; conditions: Saccharomyces cerevisiae; 200 μM of compound (μg/mL equivalent in brackets), VFM medium with no pantothenic acid, 24 h, 10^5 cells/ml
Protocol: In Table 1, “mixed” indicates a compound that is an activator at lower concentrations and is an inhibitor at higher concentrations. % growth inhibition S. cerevisiae monster was determined at 200 μM of compound in VFM medium with no pantothenic acid at 24 h (10^5 cells/ml).

HeLa cells = assay: General toxicity against HeLa cells, 72 hr; assay type: cell-based; conditions: for EC50: Homo sapiens, HeLa
Protocol: (§1) Compounds of interest were assayed for their activity as inhibitors of fungal pantothenate kinase (PanK), modulators of human PanK, and general toxicity against HeLa cells.

hPanK3 = hPanK3 (Homo sapiens, UniProt Q9H999); assay: Modulation of human PanK (hPanK3); assay type: biochemical; conditions: for IC50: Table 1; for AC50: Table 2, activation
Chain of hPanK3 (Q9H999 whole entry): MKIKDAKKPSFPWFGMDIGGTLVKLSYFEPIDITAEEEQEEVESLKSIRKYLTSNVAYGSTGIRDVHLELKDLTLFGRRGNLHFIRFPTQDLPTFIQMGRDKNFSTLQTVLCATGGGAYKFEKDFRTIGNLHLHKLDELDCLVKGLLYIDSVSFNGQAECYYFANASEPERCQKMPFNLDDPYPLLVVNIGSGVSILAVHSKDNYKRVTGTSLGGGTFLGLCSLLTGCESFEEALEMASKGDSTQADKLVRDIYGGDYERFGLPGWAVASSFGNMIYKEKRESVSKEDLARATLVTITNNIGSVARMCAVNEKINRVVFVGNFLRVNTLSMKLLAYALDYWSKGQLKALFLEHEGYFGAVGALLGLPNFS
Protocol: as §1

Cab1 = target: T1, Cab1 (Saccharomyces cerevisiae, UniProt Q04430); assay: Inhibition of Cab1 pantothenate kinase; assay type: biochemical
T1 construct: His6; made in house
T1 sequence (Q04430 whole entry): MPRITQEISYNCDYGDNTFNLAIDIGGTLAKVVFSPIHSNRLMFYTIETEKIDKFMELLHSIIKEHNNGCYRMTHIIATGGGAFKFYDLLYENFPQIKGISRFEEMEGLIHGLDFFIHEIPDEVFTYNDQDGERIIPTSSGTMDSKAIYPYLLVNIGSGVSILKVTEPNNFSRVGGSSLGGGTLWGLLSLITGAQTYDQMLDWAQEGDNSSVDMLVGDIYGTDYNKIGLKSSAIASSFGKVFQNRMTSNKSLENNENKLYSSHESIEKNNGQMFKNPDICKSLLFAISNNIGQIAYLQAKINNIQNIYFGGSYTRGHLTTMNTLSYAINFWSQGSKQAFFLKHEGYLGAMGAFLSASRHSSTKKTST
Protocol: The activity of recombinant His6-tagged Cab1p and cab1^G351S was determined in vitro using the Kinase-Glo Plus Luminescent Kinase (Kinase-Glo) assay as described in Chiu, et al., 2017, Scientific Reports 7:14234. The assay measures the amount of ATP remaining in solution following the kinase reaction. Briefly, kinase buffer consisted of 100 mM Tris-HCl pH 7.4, 10 mM MgCl2, 100 μM pantothenate (PA), 100 μM ATP, and 0.5 mg/mL γ-globulin. Kinase reactions were initiated with the addition of 500 ng of purified Cab1p or Cab1^G351S in elution buffer (10 mM Tris pH 7.4, NaCl 10 mM, 500 mM imidazole). Heat-inactivated (80° C. for 20 min) Cab1p or Cab were used as controls. Samples were incubated at room temperature for 1 hour. At the end of the incubation, an equal volume (10 μL) of Kinase-Glo reagent was added to each sample, the plates were further incubated for 5 min and luminescence was recorded using BioTek SynergyMx microplate reader (excitation wavelength 485; emission wavelength 528).
as §1

[2] = test system: WT cells (Saccharomyces cerevisiae JS91.15-23); assay: Spotting assay on YPD agar, WT yeast; assay type: cell-based; conditions: 30° C., 48 hours; amorolfine 10 ng/mL, fluconazole 10 μg/mL, terbinafine 10 μg/mL, amphotericin B 1 μg/mL
Source text: (§2) Yeast strains (Saccharomyces cerevisiae) used in this study are JS91.15-23 (MATα his3 leu2 trp1 ura3) and JS91.14-24 (MATa ura3 his3 cab1ts) (Olzhausen, et al., 2009, Curr Genet 55, 163-173). Wild type and mutant strains were propagated either in YPD medium (2% bacto-peptone, 2% D-(+)-glucose and 1% yeast extract) or defined pantothenic acid-free (minimal) medium composed of Yeast Nitrogen Base (MP Biomedicals), supplemented with Complete Supplement Mixture (MP Biomedicals) and all vitamins except pantothenic acid. Where indicated, media were supplemented with appropriate concentrations of pantothenic acid.
(§3) Spotting assay were performed as follows. Pre-cultures of WT and cab1^ts yeast strains were prepared in YPD medium overnight at 30° C. Cells were harvested, washed, and diluted to 10^8 cells in 500 μL sterile water. Subsequent serial dilutions were made and 5 μL of cell suspensions were spotted on YPD agar plates lacking or supplemented with amorolfine 10 ng/mL, amphotericin B 1 μg/mL, fluconazole 10 μg/mL or terbinafine 10 μg/mL to achieve 10^6, 10^5, 10^4, 10^3, 10^2, and 10^1 cells per spot. Plates were incubated at 30° C. or 37° C. and imaged every 24 hours. For liquid assay in 96-well plate format, cells were pre-cultured overnight in liquid YPD medium at 30° C., washed three times in water and diluted to achieve 10^4 cells per well in 150 μL of minimal medium supplemented with 1 μM, 10 μM or 100 μM pantothenic acid and either lacking or supplemented with terbinafine (160 μg/ml). All plates were incubated at 30° C. Optical density measurements were taken with a BioTek SynergyMx microplate reader (OD630) every 8 hours for a total of 96 hours. Relative time to mid-log phase was calculated by first graphing growth curves of the varying concentrations of terbinafine for each concentration of pantothenic acid, and then determining the value at which the untreated curve reached saturation, and dividing it by 2 to represent the mid-log value. Dividing the time to mid-log phase of treated cells by the time to mid-log phase of untreated gave the relative time to mid-log phase.

[3] = test system: cab1^ts cells (Saccharomyces cerevisiae JS91.14-24); assay: Spotting assay on YPD agar, cab1ts yeast; assay type: cell-based; conditions: 30° C., 48 hours; amorolfine 10 ng/mL, fluconazole 10 μg/mL, terbinafine 10 μg/mL, amphotericin B 1 μg/mL
Source text: as §2, §3

[4] = test system: WT cells (Saccharomyces cerevisiae); assay: Liquid growth assay in minimal medium, WT yeast; assay type: cell-based; conditions: 100 μM PA, single agent: squalene 100 μg/mL or terbinafine 80 μg/mL
Source text: as §2, §3

[5] = Table 1, read-out: EC50 HeLa Tox 72 hr
[6] = Table 2, read-out: EC50 HeLa Tox 72 hr
[7] = read-out: A cer. Cab1 IC50 μM, Table 2

Chain of A. fumigatus enzyme (AfPanK) (Q4WWV3 entry or part of it): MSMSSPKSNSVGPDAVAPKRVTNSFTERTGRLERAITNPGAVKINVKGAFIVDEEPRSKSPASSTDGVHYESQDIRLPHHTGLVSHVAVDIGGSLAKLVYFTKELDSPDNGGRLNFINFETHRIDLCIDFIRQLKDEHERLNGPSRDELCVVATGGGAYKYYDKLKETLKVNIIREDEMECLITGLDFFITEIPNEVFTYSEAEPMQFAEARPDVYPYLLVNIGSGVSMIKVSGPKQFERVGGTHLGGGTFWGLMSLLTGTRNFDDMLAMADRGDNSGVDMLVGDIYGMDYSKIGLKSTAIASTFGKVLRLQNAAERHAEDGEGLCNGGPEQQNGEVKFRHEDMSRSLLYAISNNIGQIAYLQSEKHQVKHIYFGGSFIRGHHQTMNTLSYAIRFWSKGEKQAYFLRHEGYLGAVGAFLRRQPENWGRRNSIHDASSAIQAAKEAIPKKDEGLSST

Row | Compound | IC50 ([1]; Table 1) [µM] | inhibition at 200 µM (S. cerevisiae monster) [%] | IC50 (hPanK3) [µM] | IC50 ([1]; Table 2) [µM] | AC50 (hPanK3) [µM] | further results
1 | CC(=O)N1CCN(Cc2cc(=O)n3nc(NCc4ccc(C(C)(C)C)cc4)nc3[nH]2)CC1 [Compound A1] | 0.036 | 98 |  |  |  | EC50 HeLa Tox 72 hr μM (HeLa cells; Table 1): Inactive
2 | CC(C)(C)OC(=O)N1CCN(Cc2cc(=O)n3nc(NCc4ccc(C(C)(C)C)cc4)nc3[nH]2)CC1 [Compound A2] | 0.083 | 87 |  |  |  | EC50 HeLa Tox 72 hr μM (HeLa cells; Table 1): Inactive
3 | Cc1cc(C(=O)O)n2nc(NCc3ccc(C(C)(C)C)cc3)nc2n1 [Compound A3] | 0.086 | 87 | > 5 |  |  | EC50 (HeLa cells; [5]): > 100 µM
4 | Cc1cc(C(=O)NCC(N)=O)n2nc(NCc3ccc(C(C)(C)C)cc3)nc2n1 [Compound A4] | 2.4 | 62 | > 100 |  |  | 
5 | CN1CCN(Cc2cc(=O)n3nc(-c4ccc(C(C)(C)C)cc4)nc3[nH]2)CC1 [Compound A5, 2-(4-(tert-butyl)phenyl)-5-((4-methylpiperazin-1-yl)methyl)-[1,2,4]triazolo[1,5-a]pyrimidin-7(4H)-one] | 5.5 | 86 | > 100 |  |  | EC50 HeLa Tox 72 hr μM (HeLa cells; Table 1): Inactive
6 | COc1cc(CN2CCOCC2)nc2nc(NCc3ccc(C(C)(C)C)cc3)nn12 [Compound A6] | 31 | 34 | > 100 |  |  | EC50 (HeLa cells; [5]): > 100 µM
7 | Cc1cc(C(=O)Nc2ccccn2)n2nc(NCc3ccc(C(C)(C)C)cc3)nc2n1 [Compound A7] | > 50 | 79 | > 100 |  |  | 
8 | COC(=O)CNC(=O)c1cc(C)nc2nc(NCc3ccc(C(C)(C)C)cc3)nn12 [Compound A8] | > 50 | 67 | > 100 |  |  | 
9 | Cc1cc(C(=O)NCCO)n2nc(NCc3ccc(C(C)(C)C)cc3)nc2n1 [Compound A9] | > 50 | 102 | > 100 |  |  | 
10 | CC(C)NCc1cc(=O)n2nc(NCc3ccc(C(C)C)cc3)nc2[nH]1 [Compound A10, 5-((isopropylamino)methyl)-2-((4-isopropylbenzyl)amino)-[1,2,4]triazolo[1,5-a]pyrimidin-7(4H)-one] | 53 | 13 |  |  |  | 
11 | CC(C)(C)c1ccc(CNc2nc3nc(CN4CCOCC4)cc(OCC(N)=O)n3n2)cc1 [Compound A11] | 62 | 77 |  |  |  | 
12 | CC(C)(C)c1ccc(CNc2nc3nc(CN4CCOCC4)cc(OCCO)n3n2)cc1 [Compound A12] | 68 | 94 |  |  |  | 
13 | CC(C)(C)c1ccc(CNc2nc3nc(CN4CCOCC4)cc(N)n3n2)cc1 [Compound A13] | 71 | 25 |  |  |  | EC50 (HeLa cells; [5]): > 100 µM
14 | CC(C)(C)c1ccc(CNc2nc3nc(CN4CCOCC4)cc(OCC(=O)O)n3n2)cc1 [Compound A14] | 78 | 49 |  |  |  | 
15 | CCOc1cc(CN2CCOCC2)nc2nc(NCc3ccc(C(C)(C)C)cc3)nn12 [Compound A15] | 98 | 37 |  |  |  | 
16 | CC(C)(C)c1ccc(CNc2nc3nc(CN4CCOCC4)cc(Cl)n3n2)cc1 [Compound A16] | ~100 | 80 | > 100 |  |  | EC50 (HeLa cells; [5]): 2.3 µM
17 | Cc1cc(C(=O)NCc2cccnc2)n2nc(NCc3ccc(C(C)(C)C)cc3)nc2n1 [Compound A17] | ~100 | 63 | > 100 |  |  | 
18 | Cc1cc(C(=O)NCC(=O)O)n2nc(NCc3ccc(C(C)(C)C)cc3)nc2n1 [Compound A18] | ~100 | 29 | > 100 |  |  | 
19 | CC(C)c1ccc(CNc2nc3[nH]c(CN4CCOCC4)cc(=O)n3n2)cc1 [Compound B1, 2-((4-isopropylbenzyl)amino)-5-(morpholinomethyl)-[1,2,4]triazolo[1,5-a]pyrimidin-7(4H)-one] |  |  |  | 0.25 | 0.0017 | EC50 HeLa Tox 72 hr μM (HeLa cells; Table 2): Inactive; IC50 (Cab1): 0.43 µM
20 | Cc1cc(=O)n2nc(NCc3ccc(C(C)C)cc3)nc2[nH]1 [Compound B2, 2-((4-isopropylbenzyl)amino)-5-methyl-[1,2,4]triazolo[1,5-a]pyrimidin-7(4H)-one] |  |  |  | 0.27 | 0.0053 | EC50 (HeLa cells; [6]): > 100 µM; IC50 (Cab1): > 100 µM
21 | Cc1ccccc1-c1nc2[nH]c(CNc3ccccc3)cc(=O)n2n1 [Compound B3, 5-((phenylamino)methyl)-2-(o-tolyl)-[1,2,4]triazolo[1,5-a]pyrimidin-7(4H)-one] |  |  |  | 10 | 0.024 | EC50 HeLa Tox 72 hr μM (HeLa cells; Table 2): Inactive; IC50 (Cab1): > 100 µM
22 | CC(C)c1ccc(CNc2nc3[nH]c(CN4CCCC4)cc(=O)n3n2)cc1 [Compound B4, 2-((4-isopropylbenzyl)amino)-5-(pyrrolidin-1-ylmethyl)-[1,2,4]triazolo[1,5-a]pyrimidin-7(4H)-one] |  |  |  | 11 | 0.032 | EC50 HeLa Tox 72 hr μM (HeLa cells; Table 2): Inactive; IC50 (Cab1): > 100 µM
23 | CNc1cc(CN2CCOCC2)nc2nc(NCc3ccc(C(C)(C)C)cc3)nn12 [Compound B5] |  |  |  | 28 | 0.038 | EC50 (HeLa cells; [6]): > 100 µM; IC50 (Cab1; [7]): 9.4 µM
24 | CC(C)(C)c1ccc(CNc2nc3[nH]c(CN4CCOCC4)cc(=O)n3n2)cc1 [Compound B6] |  |  |  | 0.26 | 0.058 | EC50 HeLa Tox 72 hr μM (HeLa cells; Table 2): Inactive; IC50 (Cab1; [7]): 0.19 µM
25 | CN(C)c1cc(CN2CCOCC2)nc2nc(NCc3ccc(C(C)(C)C)cc3)nn12 [Compound B7] |  |  |  | 44 | 0.076 | EC50 (HeLa cells; [6]): > 100 µM; IC50 (Cab1; [7]): > 100 µM
26 | CN1CCN(Cc2cc(=O)n3nc(NCc4ccc(C(C)(C)C)cc4)nc3[nH]2)CC1 [Compound B8] |  |  |  | 0.89 | 0.16 | EC50 HeLa Tox 72 hr μM (HeLa cells; Table 2): Inactive; IC50 (Cab1; [7]): 0.55 µM
27 | CC(C)(C)c1ccc(CNc2nc3[nH]c(CN4CCCCC4)cc(=O)n3n2)cc1 [Compound B9] |  |  |  | 1.8 | 0.27 | EC50 (HeLa cells; [6]): > 100 µM; IC50 (Cab1; [7]): 30 µM
28 | CCC(C)(C)c1ccc(CC(C)CN2C[C@@H](C)O[C@@H](C)C2)cc1 (stereo partly shown) [amorolfine] |  |  |  |  |  | growth of WT cells on YPD agar in the presence of the drug [2]: completely blocked; growth of cab1^ts cells on YPD agar in the presence of the drug [3]: not affected
29 | OC(Cn1cncn1)(Cn1cncn1)c1ccc(F)cc1F [fluconazole] |  |  |  |  |  | growth of WT cells on YPD agar in the presence of the drug [2]: greatly reduced; growth of cab1^ts cells on YPD agar in the presence of the drug [3]: not affected
30 | CC(C)=CCC/C(C)=C/CC/C(C)=C/CC/C=C(\C)CC/C=C(\C)CCC=C(C)C [squalene] |  |  |  |  |  | mid-log phase reached at (time) [4]: 34 hours
